{
  "source": "patent US20240299542A1",
  "about": "“NATURAL KILLER CELLS ENGINEERED TO REDUCE OR ELIMINATE CBL-B AND USES THEREOF” (City of Hope, priority 2021, published 2024)",
  "key": {"IFN-γ [1]": {"tested_on": "IFN-γ", "assay": "IFN-γ in supernatants by ELISA", "assay_type": "cell-based, human", "method": "(§1) FIGS. 4A-4D depict the results of a study showing that downregulation of Cbl-b increases IFN-γ secretion in IL-15-activated primary human NK cells. (FIG. 4A) RNAseq was conducted using primary human NK cells transduced with either Cbl-b siRNA or Scr siRNA without or with incubation in IL-15 (10 ng/ml) for 16 h (4 donors for each group). […] (FIG. 4B) qRT-PCR was performed to quantify the mRNA levels of IFN-γ (n=6 donors) after IL-15 (10 ng/ml) 6 h stimulation. (FIG. 4C) The percentage of intracellular IFN-γ+ cells in un-transduced NK cells or those transduced with Cbl-b siRNA or Scr siRNA, each activated with IL-15 (10 ng/ml) for 24 h (11.5% vs 4.338%; P=0.0008; n=5 donors). (FIG. 4D) Supernatants were collected after IL-15 (10 ng/ml) for 24 h and IFN-γ concentrations measured by ELISA (18115 pg/ml vs 882.5 pg/ml; P=0.0099; n=7 donors). Scr-scrambled; *P<0.05, **P<0.01, ***P<0.001 by Student's two-tailed paired t-test or One-way ANOVA; ns, not significant. Data presented as mean±SEM.\nELISA. Primary NK cells were plated in an equivalent number of 100,000 cells/well in a 96-well plate in RPMI and supplemented with 10% FBS. Cells were treated with recombinant human IL-15 (10 ng/ml) for 24 h, and cell-free culture supernatant was collected and frozen at −80° C. for later use. IFN-γ concentration was measured by ELISA using anti-IFN-γ antibody from Thermo Fisher Scientific. Granzyme B concentration was measured by ELISA kit purchased from R&D.\n(§2) To further explore how Cbl-b regulates the functions of primary human NK cells, we performed RNA-seq analyses using enriched primary NK cells from healthy donors transduced with Cbl-b siRNA or Scr siRNA without or with IL-15 treatment for 16 h (n=4 in each group). […] The intracellular results were supported by assessment IFN-γ secretion into the supernatant, in that IL-15-activated primary human NK cells transduced with Cbl-b siRNA expressed 10-fold higher levels of IFN-γ compared to NK cells transduced with Scr siRNA (FIG. 4D)."}, "IFN-γ [2]": {"tested_on": "IFN-γ", "assay": "Intracellular IFN-γ flow cytometry of siRNA-transduced NK cells", "assay_type": "cell-based, human", "method": "as §1\nFIGS. 9B-9D show intracellular flow cytometric analysis of CD56+ primary human NK cells transduced with Scr siRNA or transduced with Cbl-b siRNA, incubated with IL-18 (10 ng/ml), IL-12 (10 ng/ml) or IL-18 (10 ng/ml) plus IL-12 (10 ng/ml) for 24 h. Scr, scrambled; *P<0.05, ns, not significant. Data are presented as mean±SEM.\nFlow cytometry. To determine protein cell surface expression via flow cytometry, cells were stained with monoclonal antibodies at room temperature for 20 minutes and washed with FACS buffer prior to analysis using a Fortessa X-20 flow cytometer (BD Biosciences). For IFN-γ intracellular flow cytometric analysis, […] GolgiPlug (BD Biosciences) was added for 4 h before cell harvest; cells were then permeabilized and fixed using a Cytofix/Cytoperm Fixation/Permeabilization Solution Kit (BD Biosciences), followed by analysis with a Fortessa X-20 flow cytometer. Intracellular flow cytometric analysis of Mertk was performed similarly except that GolgiPlug was not added. Data was analyzed by using Flowjo V10 software (Tree Star, Ashland, OR, USA).\nas §2"}},
  "data": [
    {"substance": "Cbl-b siRNA: Cbl-b-specific Accell siRNA (Dharmacon), SEQ ID NO:1, CCUUCAUGUUCAGAUGGUU (Accell modified siRNA, pattern not given here)", "values": [
      {"measurement": "IFN-γ concentration in supernatants", "setting": "IFN-γ [1]; IL-15 (10 ng/ml) 24 h, n=7 donors", "value": 18115, "unit": "pg/mL"},
      {"measurement": "secreted IFN-γ level relative to Scr siRNA", "setting": "IFN-γ [1]; IL-15-activated", "value": 10, "unit": "fold"},
      {"measurement": "percentage of IFN-γ+ fraction relative to Scr siRNA", "setting": "IFN-γ [2]; IL-12 (10 ng/ml) or IL-12 plus IL-18 (10 ng/ml each) 24 h", "value": "no significant difference"},
      {"measurement": "percentage of intracellular IFN-γ+ cells", "setting": "IFN-γ [2]; IL-15 (10 ng/ml) 24 h, n=5 donors", "value": 11.5, "unit": "%"},
      {"measurement": "intracellular IFN-γ level relative to Scr siRNA", "setting": "IFN-γ [2]; IL-15-activated", "value": 2.5, "unit": "fold"},
      {"measurement": "percentage of IFN-γ+ fraction relative to Scr siRNA", "setting": "IFN-γ [2]; IL-18 (10 ng/ml) 24 h", "value": 2.5, "unit": "fold"}
    ]}
  ]
}
